# Assays:
# corn (ZEAMX) = assay: Selectivity test, PPI, warm season crop; type: in vivo, Zea mays; settings: Zea mays, PPI application, read-out: Percent inhibition ZEAMX
# How it was run: (§1)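 Pre-plant incorporated: compound in organic solvent sprayed onto cover soil, mixed and laid over seeds; untreated soil for controls. Greenhouse after treatment: warm season 30/21° C., cool season 18/13° C. day/night. Percent inhibition versus untreated plants scored about 14 days after planting.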
# SETFA (giant foxtail) = assay: Pre-plant incorporated (PPI) herbicidal activity, warm season; type: in vivo, Setaria faberi
# How it was run: (§2)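 PPI simulation: compound in organic solvent sprayed onto weighed cover soil, mixed thoroughly, spread over seeds. Controls: untreated cover soil. 0.64 cm overhead irrigation, then mist/subirrigation. Day/night 30/21° C (warm) or 18/13° C (cool). Read-out ~14 d, % inhibition vs untreated.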
# SETVI (green foxtail) = assay: Pre-plant incorporated (PPI) herbicidal activity, cool season; type: in vivo, Setaria viridis
# How it was run: as §2
# [1] = system: BRAPP (broadleaf signalgrass); assay: Pre-plant incorporated (PPI) herbicidal activity, warm season; type: in vivo, Brachiaria platyphylla
# How it was run: as §2
# wheat (TRZAW) = assay: Selectivity test, PPI, cool season crop; type: in vivo, Triticum aestivum; settings: Triticum aestivum, PPI application, read-out: Percent inhibition TRZAW
# How it was run: as §1
# SINAR (wild mustard) = assay: Pre-plant incorporated (PPI) herbicidal activity, cool season; type: in vivo, Sinapis arvensis
# How it was run: as §2
# [2] = system: LAMPU (purple deadnettle); assay: as above; type: in vivo, Lamium purpureum
# How it was run: as §2
# [3] = system: AGRRE (quackgrass (seedling)); assay: as above; type: in vivo, Elymus repens
# How it was run: as §2
# SORVU (shattercane) = assay: Pre-plant incorporated (PPI) herbicidal activity, warm season; type: in vivo, Sorghum vulgare
# How it was run: as §2
# [4] = system: GALAP (catchweed bedstraw); assay: Pre-plant incorporated (PPI) herbicidal activity, cool season; type: in vivo, Galium aparine
# How it was run: as §2
# STEME (common chickweed) = assay: as above; type: in vivo, Stellaria media; settings: pre-plant incorporated; lowest tested rate with 80% or greater inhibition; about 14 days
# How it was run: as §2
# barley (HORVX) = assay: Selectivity test, PPI, cool season crop; type: in vivo, Hordeunm vulgare; settings: Hordeum vulgare, PPI application, read-out: Percent inhibition HORVX
# How it was run: as §1
# SASKR (russian thistle) = assay: Pre-plant incorporated (PPI) herbicidal activity, cool season; type: in vivo, Salsola kali
# How it was run: as §2
# [5] = pre-plant incorporated, lowest tested rate with 80% or greater inhibition, about 14 days
smiles,measurement,setting,value
C=C(Br)CC(F)(F)S(=O)(=O)c1ncn(C(=O)N(CC)CC)n1 [Example 19],inhibition at 10 g/ha,corn (ZEAMX); 10 g/ha,0%
same,inhibition at 30 g/ha,corn (ZEAMX); 30 g/ha,0%
same,inhibition at 100 g/ha,corn (ZEAMX); 100 g/ha,10%
same,inhibition at 300 g/ha,corn (ZEAMX); 300 g/ha,10%
same,inhibition at 900 g/ha,corn (ZEAMX); 900 g/ha,35%
same,inhibition at 10 g/ha,"SETFA (giant foxtail); Setaria faberi, PPI application, 10 g/ha, read-out: Percent inhibition SETFA",90%
same,inhibition at 30 g/ha,"SETFA (giant foxtail); Setaria faberi, PPI application, 30 g/ha, read-out: Percent inhibition SETFA",100%
same,inhibition at 100 g/ha,"SETFA (giant foxtail); Setaria faberi, PPI application, 100 g/ha, read-out: Percent inhibition SETFA",90%
same,inhibition at 300 g/ha,"SETFA (giant foxtail); Setaria faberi, PPI application, 300 g/ha, read-out: Percent inhibition SETFA",100%
same,inhibition at 900 g/ha,"SETFA (giant foxtail); Setaria faberi, PPI application, 900 g/ha, read-out: Percent inhibition SETFA",100%
same,"PPI activity GR80, SETFA",SETFA (giant foxtail); [5],30 g/ha
same,inhibition at 10 g/ha,"SETVI (green foxtail); Setaria viridis, weed, PPI application, 10 g/ha, read-out: Percent inhibition SETVI",50%
same,inhibition at 30 g/ha,"SETVI (green foxtail); Setaria viridis, weed, PPI application, 30 g/ha, read-out: Percent inhibition SETVI",60%
same,inhibition at 100 g/ha,"SETVI (green foxtail); Setaria viridis, weed, PPI application, 100 g/ha, read-out: Percent inhibition SETVI",100%
same,inhibition at 300 g/ha,"SETVI (green foxtail); Setaria viridis, weed, PPI application, 300 g/ha, read-out: Percent inhibition SETVI",100%
same,inhibition at 900 g/ha,"SETVI (green foxtail); Setaria viridis, weed, PPI application, 900 g/ha, read-out: Percent inhibition SETVI",100%
same,"PPI activity GR80, SETVI",SETVI (green foxtail); [5],30 g/ha
same,inhibition at 10 g/ha,"[1]; Urochloa platyphylla, PPI application, 10 g/ha, read-out: Percent inhibition BRAPP",0%
same,inhibition at 30 g/ha,"[1]; Urochloa platyphylla, PPI application, 30 g/ha, read-out: Percent inhibition BRAPP",0%
same,inhibition at 100 g/ha,"[1]; Urochloa platyphylla, PPI application, 100 g/ha, read-out: Percent inhibition BRAPP",30%
same,inhibition at 300 g/ha,"[1]; Urochloa platyphylla, PPI application, 300 g/ha, read-out: Percent inhibition BRAPP",100%
same,inhibition at 900 g/ha,"[1]; Urochloa platyphylla, PPI application, 900 g/ha, read-out: Percent inhibition BRAPP",100%
same,"PPI activity GR80, BRAPP",[1]; [5],300 g/ha
same,inhibition at 10 g/ha,wheat (TRZAW); 10 g/ha,0%
same,inhibition at 30 g/ha,wheat (TRZAW); 30 g/ha,0%
same,inhibition at 100 g/ha,wheat (TRZAW); 100 g/ha,30%
same,inhibition at 300 g/ha,wheat (TRZAW); 300 g/ha,70%
same,inhibition at 900 g/ha,wheat (TRZAW); 900 g/ha,60%
same,inhibition at 10 g/ha,"SINAR (wild mustard); Brassica, weed, PPI application, 10 g/ha, read-out: Percent inhibition SINAR",100%
same,inhibition at 100 g/ha,"SINAR (wild mustard); Brassica, weed, PPI application, 100 g/ha, read-out: Percent inhibition SINAR",100%
same,inhibition at 300 g/ha,"SINAR (wild mustard); Brassica, weed, PPI application, 300 g/ha, read-out: Percent inhibition SINAR",100%
same,inhibition at 900 g/ha,"SINAR (wild mustard); Brassica, weed, PPI application, 900 g/ha, read-out: Percent inhibition SINAR",100%
same,"PPI activity GR80, SINAR",SINAR (wild mustard); [5],300 g/ha
same,inhibition at 10 g/ha,"[2]; Lamium purpureum, weed, PPI application, 10 g/ha, read-out: Percent inhibition LAMPU",0%
same,inhibition at 30 g/ha,"[2]; Lamium purpureum, weed, PPI application, 30 g/ha, read-out: Percent inhibition LAMPU",0%
same,inhibition at 300 g/ha,"[2]; Lamium purpureum, weed, PPI application, 300 g/ha, read-out: Percent inhibition LAMPU",0%
same,inhibition at 900 g/ha,"[2]; Lamium purpureum, weed, PPI application, 900 g/ha, read-out: Percent inhibition LAMPU",99%
same,"PPI activity GR80, LAMPU",[2]; [5],100 g/ha
same,inhibition at 10 g/ha,"[3]; Elymus repens, weed, PPI application, 10 g/ha, read-out: Percent inhibition AGRRE",0%
same,inhibition at 30 g/ha,"[3]; Elymus repens, weed, PPI application, 30 g/ha, read-out: Percent inhibition AGRRE",0%
same,inhibition at 100 g/ha,"[3]; Elymus repens, weed, PPI application, 100 g/ha, read-out: Percent inhibition AGRRE",10%
same,inhibition at 300 g/ha,"[3]; Elymus repens, weed, PPI application, 300 g/ha, read-out: Percent inhibition AGRRE",20%
same,inhibition at 900 g/ha,"[3]; Elymus repens, weed, PPI application, 900 g/ha, read-out: Percent inhibition AGRRE",80%
same,"PPI activity GR80, AGRRE",[3]; [5],100 g/ha
same,inhibition at 10 g/ha,"SORVU (shattercane); Sorghum bicolor, PPI application, 10 g/ha, read-out: Percent inhibition SORVU",30%
same,inhibition at 30 g/ha,"SORVU (shattercane); Sorghum bicolor, PPI application, 30 g/ha, read-out: Percent inhibition SORVU",50%
same,inhibition at 100 g/ha,"SORVU (shattercane); Sorghum bicolor, PPI application, 100 g/ha, read-out: Percent inhibition SORVU",65%
same,inhibition at 300 g/ha,"SORVU (shattercane); Sorghum bicolor, PPI application, 300 g/ha, read-out: Percent inhibition SORVU",100%
same,inhibition at 900 g/ha,"SORVU (shattercane); Sorghum bicolor, PPI application, 900 g/ha, read-out: Percent inhibition SORVU",100%
same,"PPI activity GR80, SORVU",SORVU (shattercane); [5],300 g/ha
same,inhibition at 10 g/ha,"[4]; Galium aparine, weed, PPI application, 10 g/ha, read-out: Percent inhibition GALAP",85%
same,inhibition at 30 g/ha,"[4]; Galium aparine, weed, PPI application, 30 g/ha, read-out: Percent inhibition GALAP",100%
same,inhibition at 100 g/ha,"[4]; Galium aparine, weed, PPI application, 100 g/ha, read-out: Percent inhibition GALAP",100%
same,inhibition at 300 g/ha,"[4]; Galium aparine, weed, PPI application, 300 g/ha, read-out: Percent inhibition GALAP",50%
same,inhibition at 900 g/ha,"[4]; Galium aparine, weed, PPI application, 900 g/ha, read-out: Percent inhibition GALAP",100%
same,"PPI activity GR80, GALAP",[4]; [5],100 g/ha
same,"PPI activity GR80, STEME",STEME (common chickweed),100 g/ha
same,inhibition at 10 g/ha,barley (HORVX); 10 g/ha,0%
same,inhibition at 30 g/ha,barley (HORVX); 30 g/ha,0%
same,inhibition at 100 g/ha,barley (HORVX); 100 g/ha,20%
same,inhibition at 300 g/ha,barley (HORVX); 300 g/ha,20%
same,inhibition at 900 g/ha,barley (HORVX); 900 g/ha,45%
same,inhibition at 10 g/ha,"SASKR (russian thistle); Salsola kali, weed, PPI application, 10 g/ha, read-out: Percent inhibition SASKR",0%
same,inhibition at 30 g/ha,"SASKR (russian thistle); Salsola kali, weed, PPI application, 30 g/ha, read-out: Percent inhibition SASKR",0%
same,inhibition at 100 g/ha,"SASKR (russian thistle); Salsola kali, weed, PPI application, 100 g/ha, read-out: Percent inhibition SASKR",0%
same,inhibition at 300 g/ha,"SASKR (russian thistle); Salsola kali, weed, PPI application, 300 g/ha, read-out: Percent inhibition SASKR",60%
same,inhibition at 900 g/ha,"SASKR (russian thistle); Salsola kali, weed, PPI application, 900 g/ha, read-out: Percent inhibition SASKR",95%
same,"PPI activity GR80, SASKR",SASKR (russian thistle); [5],30 g/ha

# — US6461997B1, “Triazole sulfones having herbicidal activity” (Monsanto Technology LLC, priority 1999, dated 2002)
